# In patent publication US20260137677A1, “PROTACS USEFUL AGAINST THE MAIN PROTEASE SARS-COV-2” (Tocris Cookson Limited, priority 2022, published 2026):
# Read-outs that look alike come from different tables or passages of the source.
# What was measured:
# [1] = biological target: T1, recombinant SARS-CoV-2 main protease (Mpro) (Severe acute respiratory syndrome coronavirus 2, UniProt P0DTD1); assay: biochemical; details: FRET assay, Mpro 50 nM, substrate 10 μM
# T1 construct: the main protease (Mpro; also called 3CLpro) which has an essential role in processing the polyproteins
# [2] = tested on: SARS-CoV-2 (SARS-CoV2/ZG/297-20) in Vero E6 cells; assay: microbe, parasite or virus in culture; type: cell-based; details: for inhibition at 10 µM / inhibition at 50 µM: Severe acute respiratory syndrome coronavirus 2, Vero C1008, 72 h; for inhibition at 10 µM: read-out: Antiviral Activity 10 uM; for inhibition at 50 µM: read-out: Antiviral Activity 50 uM
# [3] = tested on: SARS-CoV-2 (SARS-CoV2/ZG/297-20) in Vero E6 cells; assay: Plaque reduction assay in Vero E6 cells; type: cell-based
SMILES,IC50 [1],inhibition at 10 µM [2],inhibition at 50 µM [2],"EC50 ([2]; Severe acute respiratory syndrome coronavirus 2, Vero C1008, read-out: EC50 in antiviral assay)",reduction of viable virus in plaque reduction assay (in words) [3],"EC50 ([2]; Severe acute respiratory syndrome coronavirus 2, Vero C1008, Vero E6 infected with SARS-CoV-2 at an MOI of 0.05, read-out: EC50 in antiviral assay)"
"O=C1CCC(N2C(=O)c3cccc(OCCCCCCCCC(=O)Nc4cccn([C@@H](CC5CC5)C(=O)N[C@@H](C[C@@H]5CCNC5=O)C(=O)C(=O)NCc5ccccc5)c4=O)c3C2=O)C(=O)N1 (stereo partly drawn) [BT153, N-(1-((S)-1-(((S)-4-(benzylamino)-3,4-dioxo-1-((S)-2-oxopyrrolidin-3-yl)butan-2-yl)amino)-3-cyclopropyl-1-oxopropan-2-yl)-2-oxo-1,2-dihydropyridin-3-yl)-9-((2-(2,6-dioxopiperidin-3-yl)-1,3-dioxoisoindolin-4-yl)oxy)nonanamide]",< 100 nM,< 75%,< 75%,3200 nM,efficient reduction of viable virus,
"O=C1CCC(N2C(=O)c3cccc(OCCCCCCCCNC(=O)c4ccc5cncc(N6C(=O)NC7(CC(c8ccccc8Cl)C7)C6=O)c5c4)c3C2=O)C(=O)N1 (stereo not shown) [Compound C10778N, 4-(2-(2-chlorophenyl)-6,8-dioxo-5,7-diazaspiro[3.4]octan-7-yl)-N-(8-((2-(2,6-dioxopiperidin-3-yl)-1,3-dioxoisoindolin-4-yl)oxy)octyl)isoquinoline-6-carboxamide]",< 100 nM,< 75%,> 75%,,efficiently reduces viable virus,1700 nM
"O=C1CCC(N2C(=O)c3cccc(OCCOCCOCCOCCNC(=O)c4ccc5cncc(N6C(=O)NC7(CC(c8ccccc8Cl)C7)C6=O)c5c4)c3C2=O)C(=O)N1 (stereo not shown) [Compound C10778S, 4-(2-(2-chlorophenyl)-6,8-dioxo-5,7-diazaspiro[3.4]octan-7-yl)-N-(2-(2-(2-(2-((2-(2,6-dioxopiperidin-3-yl)-1,3-dioxoisoindolin-4-yl)oxy)ethoxy)ethoxy)ethoxy)ethyl)isoquinoline-6-carboxamide]",< 100 nM,< 25%,> 75%,,,
"O=C1CCC(N2C(=O)c3cccc(OCCCCCCCCNC(=O)c4ccc5c(N6C(=O)NC7(CC(c8ccccc8Cl)C7)C6=O)cncc5c4)c3C2=O)C(=O)N1 (stereo not shown) [Compound C10778T, 4-(2-(2-chlorophenyl)-6,8-dioxo-5,7-diazaspiro[3.4]octan-7-yl)-N-(8-((2-(2,6-dioxopiperidin-3-yl)-1,3-dioxoisoindolin-4-yl)oxy)octyl)isoquinoline-7-carboxamide]",< 100 nM,< 0%,< 0%,,,
"O=C1CCC(N2C(=O)c3cccc(OCCCCNC(=O)c4ccc5c(N6C(=O)NC7(CC(c8ccccc8Cl)C7)C6=O)cncc5c4)c3C2=O)C(=O)N1 (stereo not shown) [Compound C10778U, 4-(2-(2-chlorophenyl)-6,8-dioxo-5,7-diazaspiro[3.4]octan-7-yl)-N-(4-((2-(2,6-dioxopiperidin-3-yl)-1,3-dioxoisoindolin-4-yl)oxy)butyl)isoquinoline-7-carboxamide]",< 100 nM,< 25%,< 25%,,,
"O=C1CCC(N2C(=O)c3cccc(OCCNC(=O)c4ccc5c(N6C(=O)NC7(CC(c8ccccc8Cl)C7)C6=O)cncc5c4)c3C2=O)C(=O)N1 (stereo not shown) [Compound C10778V, 4-(2-(2-chlorophenyl)-6,8-dioxo-5,7-diazaspiro[3.4]octan-7-yl)-N-(2-((2-(2,6-dioxopiperidin-3-yl)-1,3-dioxoisoindolin-4-yl)oxy)ethyl)isoquinoline-7-carboxamide]",< 100 nM,< 25%,< 25%,,,
"O=C1CCC(N2C(=O)c3ccc(NCCCCCCNC(=O)c4ccc5c(N6C(=O)NC7(CC(c8ccccc8Cl)C7)C6=O)cncc5c4)cc3C2=O)C(=O)N1 (stereo not shown) [Compound C10778W, 4-(2-(2-chlorophenyl)-6,8-dioxo-5,7-diazaspiro[3.4]octan-7-yl)-N-(6-((2-(2,6-dioxopiperidin-3-yl)-1,3-dioxoisoindolin-5-yl)amino)hexyl)isoquinoline-7-carboxamide]",< 1000 nM,< 0%,< 0%,,,
"O=C(COc1ccc(C2CCC(=O)NC2=O)cc1)NCCCCCNC(=O)c1ccc2c(N3C(=O)NC4(CC(c5ccccc5Cl)C4)C3=O)cncc2c1 (stereo not shown) [Compound C10778X, 4-(2-(2-chlorophenyl)-6,8-dioxo-5,7-diazaspiro[3.4]octan-7-yl)-N-(5-(2-(4-(2,6-dioxopiperidin-3-yl)phenoxy)acetamido)pentyl)isoquinoline-7-carboxamide]",< 100 nM,< 0%,< 0%,,,
"O=C1CCC(N2C(=O)c3cccc(OCCOCCOCCOCCNC(=O)c4ccc5c(N6C(=O)NC7(CC(c8ccccc8Cl)C7)C6=O)cncc5c4)c3C2=O)C(=O)N1 (stereo not shown) [Compound C10778Y, 4-(2-(2-chlorophenyl)-6,8-dioxo-5,7-diazaspiro[3.4]octan-7-yl)-N-(2-(2-(2-(2-((2-(2,6-dioxopiperidin-3-yl)-1,3-dioxoisoindolin-4-yl)oxy)ethoxy)ethoxy)ethoxy)ethyl)isoquinoline-7-carboxamide]",< 100 nM,< 25%,< 50%,,,
"O=C1CCC(N2C(=O)c3cccc(OCCCCNC(=O)c4ccc5cncc(N6C(=O)NC7(CC(c8ccccc8Cl)C7)C6=O)c5c4)c3C2=O)C(=O)N1 (stereo not shown) [Compound C107780, 4-(2-(2-chlorophenyl)-6,8-dioxo-5,7-diazaspiro[3.4]octan-7-yl)-N-(4-((2-(2,6-dioxopiperidin-3-yl)-1,3-dioxoisoindolin-4-yl)oxy)butyl)isoquinoline-6-carboxamide]",< 100 nM,< 25%,> 75%,,,
O=C1CCC(N2C(=O)c3cccc(NCCCNC(=O)[C@@H](NC(=O)C(c4cccnc4)N(C(=O)c4ccco4)c4ccc5c(c4)oc4ccccc45)c4ccccc4)c3C2=O)C(=O)N1 (stereo partly shown) [TS284F2],< 10000 nM,< 0%,< 0%,,,
O=C1CCC(N2C(=O)c3cccc(NCCCCCCNC(=O)[C@@H](NC(=O)C(c4cccnc4)N(C(=O)c4ccco4)c4ccc5c(c4)oc4ccccc45)c4ccccc4)c3C2=O)C(=O)N1 (stereo partly shown) [TS296],> 25000 nM,< 0%,< 0%,,,
